Experimental data reported in ChEMBL document CHEMBL1142046 (Bioorg Med Chem Lett, 2005).
≈ marks a conversion by molar mass, not a printed value.

Test system: Vero
Test: Compound concentration to reduce virus cytopathic effect by 50% tested against herpes simplex virus-1(KOS) using Vero cell line
Format: functional, cell-based
Conditions: Chlorocebus sabaeus

SMILES | IC50
O=C1NCc2ccccc2OCCC/C=C/c2cncc3ccc1nc23 | 0.098 µg/mL (≈ 0.284 µM)
O=C1NCc2ccccc2OCC/C=C/c2cncc3ccc1nc23 | 0.391 µg/mL (≈ 1.18 µM)
Nc1ccn(C[C@@H](CO)OCP(=O)(O)O)c(=O)n1.O.O [CIDOFOVIR] | 3.94 µg/mL
Nc1nc2c(ncn2COC(CO)CO)c(=O)[nH]1 [GANCICLOVIR] | 1.27 µg/mL (≈ 4.99 µM)

Test system: MRC5
Test: Compound concentration to reduce virus plague formation by 50% tested against human cytomegalovirus laboratory strains P8 using MRC-5 cell line
Format: functional, cell-based
Conditions: not given

SMILES | IC50
O=C1NCc2ccccc2OCC/C=C/c2cncc3ccc1nc23 | 0.0052 µg/mL (≈ 0.0157 µM)
Cc1cncc2ccc(C(=O)NCc3ccccc3OC(C)C)nc12 | 0.13 µg/mL (≈ 0.388 µM)
Nc1nc2c(ncn2COC(CO)CO)c(=O)[nH]1 [GANCICLOVIR] | 1.2 µg/mL (≈ 4.7 µM)

Test system: HEL
Test: Compound concentration to reduce virus plague formation by 50% tested against human cytomegalovirus laboratory strains Davis using HEL cell line
Format: functional, cell-based
Conditions: not given

SMILES | IC50
O=C1NCc2ccccc2OCCC/C=C/c2cncc3ccc1nc23 | 0.003 µg/mL (≈ 0.00869 µM)
O=C1NCc2ccccc2OCC/C=C/c2cncc3ccc1nc23 | < 0.0015 µg/mL
Nc1nc2c(ncn2COC(CO)CO)c(=O)[nH]1 [GANCICLOVIR] | 2.7 µg/mL (≈ 10.6 µM)

Test system: Vero
Test: Compound concentration to reduce virus cytopathic effect by 50% tested against herpes simplex […] using Vero cell line
Format: functional, cell-based
Conditions: Chlorocebus sabaeus

SMILES | IC50
O=C1NCc2ccccc2OCCC/C=C/c2cncc3ccc1nc23 | 0.004 µg/mL (≈ 0.0116 µM)
O=C1NCc2ccccc2OCC/C=C/c2cncc3ccc1nc23 | 0.009 µg/mL (≈ 0.0272 µM)
Nc1ccn(C[C@@H](CO)OCP(=O)(O)O)c(=O)n1.O.O [CIDOFOVIR] | 1.28 µg/mL
Nc1nc2c(ncn2COC(CO)CO)c(=O)[nH]1 [GANCICLOVIR] | 1.22 µg/mL (≈ 4.78 µM)

Test system: MRC5
Test: Cytotoxic compound concentration to reduce neutral red uptake by 50% using MRC-5 cell line
Format: functional, Homo sapiens
Conditions: not given

SMILES | CC50%
O=C1NCc2ccccc2OCCC/C=C/c2cncc3ccc1nc23 | 0.2 µg/mL (≈ 0.579 µM)
O=C1NCc2ccccc2OCC/C=C/c2cncc3ccc1nc23 | 1.8 µg/mL (≈ 5.43 µM)
Cc1cncc2ccc(C(=O)NCc3ccccc3OC(C)C)nc12 | 2.4 µg/mL (≈ 7.16 µM)
Nc1nc2c(ncn2COC(CO)CO)c(=O)[nH]1 [GANCICLOVIR] | >1000 µg/mL

Test system: Vero
Test: Minimum cytotoxic compound concentration to induce microscopically detectable alteration of cell morphology, using Vero cell line
Format: functional, Chlorocebus sabaeus
Conditions: not given

SMILES | minimum cytotoxic concentration (MCC)
O=C1NCc2ccccc2OCCC/C=C/c2cncc3ccc1nc23 | 25 µg/mL
O=C1NCc2ccccc2OCC/C=C/c2cncc3ccc1nc23 | 6 µg/mL
Nc1ccn(C[C@@H](CO)OCP(=O)(O)O)c(=O)n1.O.O [CIDOFOVIR] | >100 µg/mL
Nc1nc2c(ncn2COC(CO)CO)c(=O)[nH]1 [GANCICLOVIR] | >100 µg/mL

Test system: MRC5
Test: Compound concentration to reduce virus plague formation by 50% tested against human cytomegalovirus laboratory strains Ad169 using MRC-5 cell line
Format: functional, cell-based
Conditions: not given

SMILES | IC50
O=C1NCc2ccccc2OCC/C=C/c2cncc3ccc1nc23 | 0.0006 µg/mL (≈ 0.00181 µM)
Cc1cncc2ccc(C(=O)NCc3ccccc3OC(C)C)nc12 | 0.09 µg/mL (≈ 0.268 µM)
Nc1nc2c(ncn2COC(CO)CO)c(=O)[nH]1 [GANCICLOVIR] | 2.2 µg/mL (≈ 8.62 µM)
